From PMC10644342, “Improved Antibacterial Activity of 1,3,4-Oxadiazole-Based Compounds That Restrict Staphylococcus aureus Growth Independent of LtaS Function” (ACS Infectious Diseases, 2023)
Values after ≈ are worked out from the molar mass of the structure shown. Where two headings read alike, the source gives them in different places.

Columns and labels:
LtaS = test system: LtaS; design: method as in PMID 29300473; conditions: LtaS in artificial liposomes; cited from earlier work
[1] = test system: S. aureus wild type, clpX, ltaS, tarO mutants and ltaS overexpression strains; experiment: MIC against LtaS deletion and overexpression strains; assay type: cell-based, Staphylococcus aureus; conditions: Staphylococcus aureus, NEWMAN
Procedure: (§1) S. aureus, S. epidermidis, E. faecalis, and E. faecium strains were routinely cultivated on tryptic soy agar (TSA) and grown for 18 h at 37 °C. S. aureus single colonies were subsequently transferred into 2 mL of tryptic soy broth (TSB) and grown for a further 18 h at 37 °C while being shaken at 180 rpm. S. pyogenes, S. agalactiae, and S. dysgalactiae strains were routinely cultured on TSA supplemented with 5% sheep blood and grown for 18 h at 37 °C with 5% CO2. E. coli was grown in LB broth at 37 °C. For LtaS-deficient strains, TSB was supplemented with 0.5 M NaCl to provide an osmotically balanced environment and instead grown at 30 °C. For strains harboring the pRMC2 tetracycline inducible vector,[61] the growth medium was supplemented with 10 μg/mL chloramphenicol and […] anhydrotetracycline hydrochloride (Sigma). Phenylalanine-arginine β-naphthylamide (PAβN) (Sigma) was dissolved in sterile water.
(§2) B. subtilis, staphylococcal, and enterococcal strains were grown in Mueller Hinton broth (MHB), while streptococcal strains were grown in MHB supplemented with 5% laked horse blood. All strains were grown for 18 h at 37 °C. The overnight cultures were subsequently subcultured 1:200 and grown to the exponential phase (OD600nm = 0.5–0.6) in fresh broth. 1771 and its derivatives 9–14 were reconstituted in DMSO and further diluted by performing a 1:2 serial dilution ranging between 256 and 0.125 μg/mL in a 96-well microtiter plate. One hundred microliters of 0.5 McFarland standardized inoculum (approximately equal to 5 × 10^5 cfu) were then dispensed into each well in the 96-well microtiter plate. The plate was incubated for 18 h at 37 °C.
For overexpression studies, full-length ltaS was amplified by PCR using MRSA strian LAC genomic DNA, primer pair LtaS-FW: 5′-[…]-3′ and LtaS-RV: 5′-[…]-3′, and Phusion High-Fidelity DNA Polymerase (Thermo Fisher). The resulting PCR product was cloned into the tetracycline inducible plasmid pRMC2 using SacI and KpnI restriction sites and T4 ligase (NEB). The cloned vector was subsequently transformed into RN4220 followed by LAC through electroporation.

HL-60 cell line = conditions: cited from earlier work
S. aureus [2] = test system: S. aureus; design: method as in PMID 23401520; conditions: cited from earlier work
LTA = LTA quantification by Western blot; assay type: cell-based, Staphylococcus aureus; conditions: strain LAC, 1× and 4× the MIC
Procedure: Overnight cultures of S. aureus strains were diluted 1:200 in fresh TSB and grown to an optical density of OD600nm 0.3. […] Vancomycin and daptomycin at 1× and 4× MIC were also included as control antibiotics. Cells were then normalized to have 10 mL of OD600nm 0.6, pelleted at 4000 rpm, and resuspended in 300 μL of PBS containing 200 μg/mL lysostaphin. This suspension was then incubated at 37 °C for 45 min to allow digestion of the cell wall to occur. One hundred microlitres of 4× SDS sample buffer were then added, and the mixture was boiled at 95 °C for 20 min. The insoluble material was then removed by pelleting at 16,000 rpm for 10 min. The supernatant containing LTA was then subjected to SDS-PAGE on a 4–20% Tris-glycine gel (Bio-Rad). The gel was transferred onto a PVDF membrane using a Trans-Blot Turbo Transfer System (Bio-Rad). The membrane was blocked overnight in TBST containing 5% semi-skimmed milk before being incubated with a mouse anti-LTA antibody (Hycult; HM2048; 1:2000 dilution) followed by a goat antimouse-HRP secondary antibody (Proteintech; SA00001; 1:2000 dilution) before being visualized using an Amersham-ECL kit (Cytiva).

[3] = test system: S. epidermidis strain RP62A; experiment: Biofilm prevention, crystal violet assay; assay type: cell-based, Staphylococcus epidermidis; conditions: 24 h
Procedure: (§3) An indication of the biofilm prevention capabilities of 1771 and its derivatives 9–14 was achieved through the application of the crystal violet assay. S. aureus strain SH1000 and S. epidermidis strain RP62A were used, as they are strong biofilm formers. Overnight cultures were diluted 1:200 in fresh TSB containing 0.5% glucose (TSB-G), and 100 μL was added to individual wells in a 96-well microtiter plate. One hundred microliters of 1771 and 9–14 were diluted in TSB-G and added to bacteria at a final concentration ranging from 256 to 0.25 μg/mL with subsequent incubation for 24 h at 37 °C in a static incubator. Following incubation, biofilms were washed four times with ddH2O before being stained with 150 μL of 0.1% crystal violet for 30 min at room temperature. Following a further four washes in ddH2O, wells were resuspended in 200 μL of 7% acetic acid. The absorbance intensity of the crystal violet was measured at abs595nm in a Sunrise plate reader. Biomass formed was measured as a percentage of the no-compound control.

S. aureus [4] = experiment: MIC, broth microdilution (CLSI); assay type: cell-based, Staphylococcus aureus; conditions: for MIC: Staphylococcus aureus, read-out: minimum inhibitory concentration
Procedure: as §1, §2

S. aureus strain SH1000 = experiment: Biofilm prevention, crystal violet assay; assay type: cell-based, Staphylococcus aureus; conditions: SH1000, 24 h
Procedure: as §3

S. epidermidis = experiment: MIC, broth microdilution (CLSI); assay type: cell-based, Staphylococcus epidermidis; conditions: Staphylococcus epidermidis, read-out: minimum inhibitory concentration
Procedure: as §1, §2

Nc1c(/N=N/c2ccc(-c3ccc(/N=N/c4cc(S(=O)(=O)O)c5ccccc5c4N)cc3)cc2)cc(S(=O)(=O)O)c2ccccc12 [Congo red]
inhibition of LtaS polymerization activity (LtaS): blocked LtaS function | MIC [1]: > 512 µg/mL | MIC ([1]; Newman ΔtarO): 64 µg/mL (≈ 98.1 µM) | MIC ([1]; Newman ΔtarO pRMC2 (empty vector)): 64 µg/mL (≈ 98.1 µM) | MIC ([1]; Newman ΔtarO pltaS (ltaS overexpression)): 256 µg/mL (≈ 392 µM)

[H]/N=C(/N)N[C@H]1[C@H](O)[C@@H](O)[C@H](O[C@@H]2O[C@@H](C)[C@](O)(C=O)[C@H]2O[C@@H]2O[C@@H](CO)[C@H](O)[C@@H](O)[C@@H]2NC)[C@@H](N/C(N)=N\[H])[C@@H]1O [streptomycin]
Cell health index (CHI) (HL-60 cell line): 0.19 | frequency of mutant selection (S. aureus [2]): < 10^–7

Cc1c(N)cccc1Cn1ccc(OCCc2cccs2)cc1=O [nilofabicin]
LTA signal by Western blot (LTA): substantial decrease in LTA production

CCCCCCCCCC(=O)N[C@@H](Cc1c[nH]c2ccccc12)C(=O)N[C@H](CC(N)=O)C(=O)N[C@@H](CC(=O)O)C(=O)N[C@@H]1C(=O)NCC(=O)N[C@@H](CCCN)C(=O)N[C@@H](CC(=O)O)C(=O)N[C@H](C)C(=O)N[C@@H](CC(=O)O)C(=O)NCC(=O)N[C@H](CO)C(=O)N[C@@H]([C@H](C)CC(=O)O)C(=O)N[C@@H](CC(=O)c2ccccc2N)C(=O)O[C@@H]1C [daptomycin]
LTA signal by Western blot (LTA): No reduction in LTA

CN[C@H](CC(C)C)C(=O)N[C@H]1C(=O)N[C@@H](CC(N)=O)C(=O)N[C@H]2C(=O)N[C@H]3C(=O)N[C@H](C(=O)N[C@H](C(=O)O)c4cc(O)cc(O)c4-c4cc3ccc4O)[C@H](O)c3ccc(c(Cl)c3)Oc3cc2cc(c3O[C@@H]2O[C@H](CO)[C@@H](O)[C@H](O)[C@H]2O[C@H]2C[C@](C)(N)[C@H](O)[C@H](C)O2)Oc2ccc(cc2Cl)[C@H]1O [vancomycin]
Cell health index (CHI) (HL-60 cell line; antibiotics used in the training set, Table S2): 0.16 | LTA signal by Western blot (LTA): No reduction in LTA

Oc1cc(Cl)ccc1Oc1ccc(Cl)cc1Cl [triclosan]
LTA signal by Western blot (LTA): substantial decrease in LTA production

O=C(COC(=O)Cc1coc2ccc3ccccc3c12)Nc1nnc(-c2ccccc2)s1 [Compound 14, 2-Oxo-2-((5-phenyl-1,3,4-thiadiazol-2-yl)amino)ethyl 2-(Naphtho[2,1-b]furan-1-yl)acetate]
concentration causing a 50% reduction in biofilm formation [3]: 16 to 64 µg/mL | fold increase in the MIC when compared to 1771 (S. aureus [4]; S. aureus and S. epidermidis strains): 4- to 16 fold | MIC (S. aureus [4]; NEWMAN, strain Newman): > 64 µg/mL | MIC (S. aureus [4]; strain EMRSA-15): > 64 µg/mL | MIC (S. aureus [4]; strain LAC): > 64 µg/mL | MIC (S. aureus [4]; strain MRSA252): > 64 µg/mL | MIC (S. aureus [4]; strain MW2): > 64 µg/mL | MIC (S. aureus [4]; strain Mu3): > 64 µg/mL | MIC (S. aureus [4]; strain Mu50): > 64 µg/mL | MIC (S. aureus [4]; strain SH1000): > 64 µg/mL | MIC (S. aureus [4]; strain TW20): > 64 µg/mL | concentration causing a 50% reduction in biofilm formation (S. aureus strain SH1000): 32 to 64 µg/mL | MIC (S. epidermidis; strain 305): > 64 µg/mL | MIC (S. epidermidis; strain 311): > 64 µg/mL | MIC (S. epidermidis; strain 319): > 64 µg/mL | MIC (S. epidermidis; strain 322): > 64 µg/mL | MIC (S. epidermidis; strain 771): > 64 µg/mL | MIC (S. epidermidis; strain 780): > 64 µg/mL | MIC (S. epidermidis; strain RP62A): > 64 µg/mL
